Assay results reported in patent EP0318767A2, “Esters of pharmacologically active carboxylic acids splittable under physiological conditions” (F. HOFFMANN-LA ROCHE AG, priority 1987, dated 1989).

What was measured:
Mäusen = assay: Acute toxicity after a single oral administration to mice; assay type: in vivo
Text: (§1) Man verursacht eine experimentelle Septikämie in 16-20 g schweren Albinomäusen, indem man den Versuchstieren eine Probe einer verdünnten Kultur des Testorganismus, Escherichia coli 25922, welche über Nacht gewachsen ist. intraperitoneal injiziert. Die verabreichte Probe wird dabei so bemessen, dass die verabreichte Dosis etwa 10-20 mal grösser ist, als die Dosis, welche benötigt wird um 50% der unbehandelten Versuchstiere innerhalb von 48 Stunden zu töten. Die Bakterien wurden als Suspension in Kulturbrühe injiziert. Sowohl für die Kontrolle als auch für die Behandlung wurden für jede getestete Dosis Gruppen zu je 5 Versuchstieren verwendet. Die erfindungsgemässen Ester wurden oral verabreicht, und zwar als Lösung in Tween 80 (4%), wobei die Konzentrationen so gewählt wurden, dass jedes Versuchstier 500 µl erhielt. Die Behandlungen erfolgten 1 und 3 Stunden nach der Infektion. Die ED₅₀ ist diejenige Dosis, welche 50% der Versuchstiere schützt, und wurde ausgehend von der Ueberlebensrate nach 4 Tagen nach der Infektion mittels der Probitmethode berechnet. In der nachfolgenden Tabelle sind die ED₅₀-Werte in mg/kg p.o. für Vertreter der erfindungsgemassen Stoffklasse angegeben. Die Tabelle enthält ausserdem Angaben über die akute Toxizität der erfindungsgemässen Ester bei einmaliger oraler Verabreichung an Mäusen. Tabelle

Escherichia coli 25922 = assay: Experimental septicaemia in mice, oral antimicrobial efficacy; assay type: in vivo; details: Albino mice 16-20 g infected i.p. with Escherichia coli 25922, ester given orally in Tween 80 (4%) 1 and 3 h after infection, dose protecting 50% of animals, survival 4 days after infection, probit method; for ED50: read-out: ED₅₀ in mg/kg p.o.
Text: Die perorale antimikrobielle Wirksamkeit der erfindungsgemässen Ester von antibiotisch wirksamen Carbonsäuren kann beispielsweise im nachfolgend beschriebenen Tierversuch nachgewiesen werden:
as §1

Structure (SMILES)	DL₅₀ in mg/kg p.o. (Mäusen) [mg/kg]	ED50 (Escherichia coli 25922) [mg/kg]	ED₅₀ in mg/kg p.o. (Escherichia coli 25922)
CC/C=C(\COC(=O)C1=C(CN=[N+]=[N-])CS[C@@H]2[C@H](NC(=O)/C(=N\OC)c3csc(N)n3)C(=O)N12)C(=O)OCC(C)C [Verbindung A, (E)-2-(Isobutoxycarbonyl)-2-pentenyl (6R,7R)-7-[(Z)-2-(2-amino-4-thiazolyl)-2-(methoxyimino)acetamido]-3-(azidomethyl)-8-oxo-5-thia-1-azabicyclo[4.2.0]oct-2-en-2-carboxylat]	>5000	0.28	
CC/C=C(\COC(=O)C1=C(C)CS[C@@H]2[C@H](NC(=O)/C(=N\OC)c3csc(N)n3)C(=O)N12)C(=O)OCC(C)C [Verbindung B, (E)-2-(Isobutoxycarbonyl)-2-pentenyl (6R,7R)-7-[(Z)-2-(2-amino-4-thiazolyl)-2-(methoxyimino)acetamido]-3-methyl-8-oxo-5-thia-1-azabicyclo[4.2.0]oct-2-en-2-carboxylat]		1.4	
C/C=C(\COC(=O)C1=C(C)CS[C@@H]2[C@H](NC(=O)/C(=N\OC)c3csc(N)n3)C(=O)N12)C(=O)OCC [Verbindung C, (E)-2-(Aethoxycarbonyl)-2-butenyl (6R,7R)-7-[(Z)-2-(2-amino-4-thiazolyl)-2-(methoxyimino)acetamido]-3-methyl-8-oxo-5-thia-azabicyclo[4.2.0]oct-2-en-2-carboxylat]	>5000		0,89 mg/kg
